Test results: PMC9005681, “Use of AD Informer Set compounds to explore validity of novel targets in Alzheimer's disease pathology” (Alzheimer's & Dementia : Translational Research & Clinical …, 2022)

Tests used:
Test in all cases: PDSP GPCR panel primary binding assays at 10 μM
[1] = target: T1, cloned human or rodent CNS receptors, channels, and transporters (PDSP panel) (Homo sapiens, UniProt P08912); details: Receptor M5, primary assay, 10 μM
T1 construct: expressed in transfected cells
T1 sequence (P08912 1-532): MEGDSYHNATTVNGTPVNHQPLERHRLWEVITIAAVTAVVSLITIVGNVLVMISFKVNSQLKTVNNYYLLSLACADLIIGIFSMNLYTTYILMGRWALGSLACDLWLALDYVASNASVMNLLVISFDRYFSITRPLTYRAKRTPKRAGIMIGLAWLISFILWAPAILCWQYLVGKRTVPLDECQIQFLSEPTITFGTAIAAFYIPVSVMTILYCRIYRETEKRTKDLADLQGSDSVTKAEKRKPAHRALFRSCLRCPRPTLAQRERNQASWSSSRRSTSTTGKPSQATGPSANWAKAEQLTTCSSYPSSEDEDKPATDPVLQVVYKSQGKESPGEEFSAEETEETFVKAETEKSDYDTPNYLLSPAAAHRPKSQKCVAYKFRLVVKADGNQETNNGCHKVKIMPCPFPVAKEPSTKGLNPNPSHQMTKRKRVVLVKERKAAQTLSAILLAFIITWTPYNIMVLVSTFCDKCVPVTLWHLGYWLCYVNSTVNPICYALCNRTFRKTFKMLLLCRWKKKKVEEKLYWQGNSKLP
Summary of the method: (§1)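 PDSP panel of 46–47 cloned human or rodent CNS receptors, channels and transporters; radioligand displacement by compound at 10 μM, in quadruplicate. Where average displacement exceeded 50%, secondary binding followed as 11-point dose-response in triplicate (none for H3, PBR or GABAA).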

[2] = target: T2, cloned human or rodent CNS receptors, channels, and transporters (PDSP panel) (Homo sapiens, UniProt P14416); details: Receptor D2, primary assay, 10 μM
T2 construct: expressed in transfected cells
Summary of the method: as §1

[3] = target: T3, cloned human or rodent CNS receptors, channels, and transporters (PDSP panel) (Homo sapiens, UniProt P20309); details: Receptor M3, primary assay, 10 μM
T3 construct: expressed in transfected cells
Summary of the method: as §1

[4] = target: T4, cloned human or rodent CNS receptors, channels, and transporters (PDSP panel) (Homo sapiens, UniProt P28566); details: Receptor 5-HT1E, primary assay, 10 μM
T4 construct: expressed in transfected cells
Summary of the method: as §1

[5] = target: T5, cloned human or rodent CNS receptors, channels, and transporters (PDSP panel) (Homo sapiens, UniProt P35367); details: Receptor H1, primary assay, 10 μM
T5 construct: expressed in transfected cells
Summary of the method: as §1

[6] = target: T6, cloned human or rodent CNS receptors, channels, and transporters (PDSP panel) (Homo sapiens, UniProt P35372); details: Receptor MOR, primary assay, 10 μM
T6 construct: expressed in transfected cells
Summary of the method: as §1

[7] = target: T7, cloned human or rodent CNS receptors, channels, and transporters (PDSP panel) (Homo sapiens, UniProt Q01959); details: DAT, primary assay
T7 construct: expressed in transfected cells
Summary of the method: as §1

[8] = test system: cloned human or rodent CNS receptors, channels, and transporters (PDSP panel); details: primary assay
Summary of the method: as §1

[9] = Receptor BZP Rat Brain Site, 10 μM

T5 sequence (P35367 whole entry): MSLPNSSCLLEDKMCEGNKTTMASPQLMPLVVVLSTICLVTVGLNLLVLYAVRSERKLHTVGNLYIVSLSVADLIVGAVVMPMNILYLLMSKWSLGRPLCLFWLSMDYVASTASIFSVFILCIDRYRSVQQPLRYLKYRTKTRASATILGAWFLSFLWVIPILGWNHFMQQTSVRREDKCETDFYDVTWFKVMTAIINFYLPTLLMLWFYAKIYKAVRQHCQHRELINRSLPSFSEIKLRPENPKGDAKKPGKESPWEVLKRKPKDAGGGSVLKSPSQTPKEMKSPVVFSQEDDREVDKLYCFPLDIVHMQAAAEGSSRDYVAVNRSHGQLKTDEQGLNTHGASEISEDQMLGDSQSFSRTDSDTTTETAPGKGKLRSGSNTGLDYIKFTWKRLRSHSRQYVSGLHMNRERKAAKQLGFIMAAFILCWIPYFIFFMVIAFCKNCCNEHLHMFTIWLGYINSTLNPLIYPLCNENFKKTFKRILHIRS
T3 sequence (P20309 whole entry): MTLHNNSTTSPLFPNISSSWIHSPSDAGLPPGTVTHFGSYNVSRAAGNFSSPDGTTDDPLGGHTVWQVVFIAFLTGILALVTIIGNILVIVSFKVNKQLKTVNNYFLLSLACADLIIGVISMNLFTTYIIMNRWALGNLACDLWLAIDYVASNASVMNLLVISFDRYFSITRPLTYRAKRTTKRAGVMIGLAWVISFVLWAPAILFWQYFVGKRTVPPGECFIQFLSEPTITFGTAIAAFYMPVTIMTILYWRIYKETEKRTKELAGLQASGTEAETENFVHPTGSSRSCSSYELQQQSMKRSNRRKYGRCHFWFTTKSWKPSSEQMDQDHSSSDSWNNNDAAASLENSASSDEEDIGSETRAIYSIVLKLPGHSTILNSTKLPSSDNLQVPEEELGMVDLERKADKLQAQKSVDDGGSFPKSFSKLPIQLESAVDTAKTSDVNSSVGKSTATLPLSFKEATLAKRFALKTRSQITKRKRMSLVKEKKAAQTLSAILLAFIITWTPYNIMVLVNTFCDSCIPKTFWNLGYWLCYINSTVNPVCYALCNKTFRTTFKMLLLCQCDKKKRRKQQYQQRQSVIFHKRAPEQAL
T6 sequence (P35372 whole entry): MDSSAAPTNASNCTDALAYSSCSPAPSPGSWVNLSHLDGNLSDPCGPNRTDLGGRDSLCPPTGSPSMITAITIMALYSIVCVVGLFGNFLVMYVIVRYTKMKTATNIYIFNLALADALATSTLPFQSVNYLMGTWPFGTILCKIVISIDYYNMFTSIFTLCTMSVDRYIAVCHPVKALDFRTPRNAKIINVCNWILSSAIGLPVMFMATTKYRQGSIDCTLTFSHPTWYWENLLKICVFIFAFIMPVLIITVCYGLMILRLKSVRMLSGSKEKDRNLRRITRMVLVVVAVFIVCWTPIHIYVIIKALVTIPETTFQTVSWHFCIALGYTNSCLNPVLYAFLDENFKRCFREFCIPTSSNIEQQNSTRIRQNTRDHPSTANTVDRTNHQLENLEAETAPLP
T7 sequence (Q01959 whole entry): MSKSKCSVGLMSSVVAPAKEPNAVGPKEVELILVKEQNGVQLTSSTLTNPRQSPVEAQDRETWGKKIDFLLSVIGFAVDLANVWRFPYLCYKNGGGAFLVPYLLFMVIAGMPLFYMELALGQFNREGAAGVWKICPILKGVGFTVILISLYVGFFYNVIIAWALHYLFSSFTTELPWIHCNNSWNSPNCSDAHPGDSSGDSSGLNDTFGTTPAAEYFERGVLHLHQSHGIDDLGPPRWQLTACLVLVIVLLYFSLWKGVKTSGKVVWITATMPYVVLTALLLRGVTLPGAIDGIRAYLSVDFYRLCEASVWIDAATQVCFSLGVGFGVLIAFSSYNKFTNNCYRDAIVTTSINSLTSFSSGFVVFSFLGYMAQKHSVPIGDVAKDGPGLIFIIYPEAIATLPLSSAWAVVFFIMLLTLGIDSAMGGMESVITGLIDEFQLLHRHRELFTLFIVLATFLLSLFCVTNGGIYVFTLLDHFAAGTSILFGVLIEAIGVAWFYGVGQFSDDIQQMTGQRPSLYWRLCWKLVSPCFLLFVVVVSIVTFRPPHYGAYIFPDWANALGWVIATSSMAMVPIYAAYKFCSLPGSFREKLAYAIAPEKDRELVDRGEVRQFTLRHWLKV
T2 sequence (P14416 whole entry): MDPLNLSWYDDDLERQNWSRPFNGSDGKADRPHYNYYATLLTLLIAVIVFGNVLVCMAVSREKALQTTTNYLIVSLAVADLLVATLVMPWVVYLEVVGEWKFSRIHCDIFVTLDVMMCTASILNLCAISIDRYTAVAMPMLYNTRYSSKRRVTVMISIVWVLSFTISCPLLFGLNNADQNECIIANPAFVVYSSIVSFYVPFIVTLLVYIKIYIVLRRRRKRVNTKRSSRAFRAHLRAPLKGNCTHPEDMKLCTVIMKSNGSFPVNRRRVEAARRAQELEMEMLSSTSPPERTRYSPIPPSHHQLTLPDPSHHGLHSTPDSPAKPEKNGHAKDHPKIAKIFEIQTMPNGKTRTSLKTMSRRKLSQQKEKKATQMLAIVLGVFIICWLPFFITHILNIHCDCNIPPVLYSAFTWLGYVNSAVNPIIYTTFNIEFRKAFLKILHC
T4 sequence (P28566 whole entry): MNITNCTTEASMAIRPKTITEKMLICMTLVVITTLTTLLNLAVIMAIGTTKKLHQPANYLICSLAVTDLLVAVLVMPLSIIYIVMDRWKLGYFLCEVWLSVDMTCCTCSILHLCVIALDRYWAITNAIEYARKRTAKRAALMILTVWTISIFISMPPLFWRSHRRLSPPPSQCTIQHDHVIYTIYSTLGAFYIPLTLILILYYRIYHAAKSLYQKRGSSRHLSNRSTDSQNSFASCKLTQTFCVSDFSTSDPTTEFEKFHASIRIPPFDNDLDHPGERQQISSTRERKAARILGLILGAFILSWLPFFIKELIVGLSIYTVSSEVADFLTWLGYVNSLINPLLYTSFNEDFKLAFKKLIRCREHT

Question: Which “Inhibition 1” value [1] does the source give for `O=c1oc2ccccc2cc1-c1cn2cc(Cc3ccc(F)cc3)sc2n1` [UNC10302680A, iMDK] here?
Answer: -0.74%

Question: What about the “Inhibition 2” value [1] of the same compound?
Answer: -17.55%

Question: What about the “Inhibition 3” value [1] of the same compound?
Answer: -6.68%

Question: And the “Inhibition 4” value [1]?
Answer: -10.7%

Question: And the Mean % ([1]; mean of Inhibition 1-4)?
Answer: -8.92%

Question: And the “Inhibition 1” value [2]?
Answer: 11.41%

Question: What about the “Inhibition 2” value [2] of the same compound?
Answer: -7.84%

Question: What about the “Inhibition 3” value [2] of the same compound?
Answer: -2.59%

Question: What about the “Inhibition 4” value [2] of the same compound?
Answer: 7.52%

Question: What about the Mean % ([2]; mean of Inhibition 1-4) of the same compound?
Answer: 2.13%

Question: And the “Inhibition 1” value [3]?
Answer: 9.1%

Question: What about the “Inhibition 2” value [3] of the same compound?
Answer: 60.54%

Question: What about the “Inhibition 3” value [3] of the same compound?
Answer: 10.14%

Question: What about the “Inhibition 4” value [3] of the same compound?
Answer: 13.11%

Question: And the Mean % ([3]; mean of Inhibition 1-4)?
Answer: 23.22%

Question: And the “Inhibition 1” value [4]?
Answer: 3.08%

Question: And the “Inhibition 2” value [4]?
Answer: -14.65%

Question: What about the “Inhibition 3” value [4] of the same compound?
Answer: -14.65%

Question: What about the “Inhibition 4” value [4] of the same compound?
Answer: -17.01%

Question: What about the Mean % ([4]; mean of Inhibition 1-4) of the same compound?
Answer: -10.81%

Question: What about the “Inhibition 1” value [5] of the same compound?
Answer: 99.74%

Question: What about the “Inhibition 2” value [5] of the same compound?
Answer: 88.41%

Question: What about the “Inhibition 3” value [5] of the same compound?
Answer: 71.44%

Question: And the “Inhibition 4” value [5]?
Answer: 51.8%

Question: What about the Mean % ([5]; mean of Inhibition 1-4) of the same compound?
Answer: 77.85%

Question: And the “Inhibition 1” value [6]?
Answer: 9.07%

Question: What about the “Inhibition 2” value [6] of the same compound?
Answer: 9.93%

Question: And the “Inhibition 3” value [6]?
Answer: 2.65%

Question: And the “Inhibition 4” value [6]?
Answer: 1.88%

Question: And the Mean % ([6]; mean of Inhibition 1-4)?
Answer: 5.88%

Question: And the Mean % ([7]; mean inhibition)?
Answer: 24.58%

Question: And the “Inhibition 1” value ([7]; replicate 1)?
Answer: 19.55%

Question: What about the “Inhibition 2” value ([7]; replicate 2) of the same compound?
Answer: 22.26%

Question: What about the “Inhibition 3” value ([7]; replicate 3) of the same compound?
Answer: 29.6%

Question: What about the “Inhibition 4” value ([7]; replicate 4) of the same compound?
Answer: 26.9%

Question: And the Mean % ([8]; H3, mean inhibition)?
Answer: 41.02%

Question: What about the “Inhibition 1” value ([8]; H3, replicate 1) of the same compound?
Answer: 20.04%

Question: And the “Inhibition 2” value ([8]; H3, replicate 2)?
Answer: 32.28%

Question: And the “Inhibition 3” value ([8]; H3, replicate 3)?
Answer: 47.14%

Question: What about the “Inhibition 4” value ([8]; H3, replicate 4) of the same compound?
Answer: 64.63%

Question: And the Mean % ([8]; H4, mean inhibition)?
Answer: 39.36%

Question: What about the “Inhibition 1” value ([8]; H4, replicate 1) of the same compound?
Answer: 11.58%

Question: What about the “Inhibition 2” value ([8]; H4, replicate 2) of the same compound?
Answer: 47.34%

Question: And the “Inhibition 3” value ([8]; H4, replicate 3)?
Answer: 40.86%

Question: What about the “Inhibition 4” value ([8]; H4, replicate 4) of the same compound?
Answer: 57.67%

Question: And the “Inhibition 1” value ([8]; Receptor Alpha1A, 10 μM)?
Answer: -21.6%

Question: And the “Inhibition 2” value ([8]; Receptor Alpha1A, 10 μM)?
Answer: -1.59%

Question: What about the “Inhibition 3” value ([8]; Receptor Alpha1A, 10 μM) of the same compound?
Answer: -0.84%

Question: And the “Inhibition 4” value ([8]; Receptor Alpha1A, 10 μM)?
Answer: -9.82%

Question: What about the Mean % ([8]; Receptor Alpha1A, 10 μM, mean of Inhibition 1-4) of the same compound?
Answer: -8.46%

Question: And the “Inhibition 1” value ([8]; Receptor Alpha2A, 10 μM)?
Answer: 9.97%

Question: And the “Inhibition 2” value ([8]; Receptor Alpha2A, 10 μM)?
Answer: 11.68%

Question: And the “Inhibition 3” value ([8]; Receptor Alpha2A, 10 μM)?
Answer: -0.74%

Question: And the “Inhibition 4” value ([8]; Receptor Alpha2A, 10 μM)?
Answer: -29.15%

Question: And the Mean % ([8]; Receptor Alpha2A, 10 μM, mean of Inhibition 1-4)?
Answer: -2.06%

Question: What about the “Inhibition 1” value ([8]; Receptor Alpha2C, 10 μM) of the same compound?
Answer: 20.53%

Question: What about the “Inhibition 2” value ([8]; Receptor Alpha2C, 10 μM) of the same compound?
Answer: 3.75%

Question: What about the “Inhibition 3” value ([8]; Receptor Alpha2C, 10 μM) of the same compound?
Answer: 5.64%

Question: And the “Inhibition 4” value ([8]; Receptor Alpha2C, 10 μM)?
Answer: 4%

Question: And the Mean % ([8]; Receptor Alpha2C, 10 μM, mean of Inhibition 1-4)?
Answer: 8.48%

Question: And the “Inhibition 1” value [8, 9]?
Answer: -12.35%

Question: What about the “Inhibition 2” value [8, 9] of the same compound?
Answer: -8.18%

Question: And the “Inhibition 3” value [8, 9]?
Answer: -22.2%

Question: What about the “Inhibition 4” value [8, 9] of the same compound?
Answer: 3.1%

Question: What about the Mean % ([8]; Receptor BZP Rat Brain Site, 10 μM, mean of Inhibition 1-4) of the same compound?
Answer: -9.91%

Question: What about the “Inhibition 1” value ([8]; Receptor DOR, 10 μM) of the same compound?
Answer: -22.02%

Question: What about the “Inhibition 2” value ([8]; Receptor DOR, 10 μM) of the same compound?
Answer: -14.61%

Question: What about the “Inhibition 3” value ([8]; Receptor DOR, 10 μM) of the same compound?
Answer: -13.89%

Question: What about the “Inhibition 4” value ([8]; Receptor DOR, 10 μM) of the same compound?
Answer: -8.29%

Question: And the Mean % ([8]; Receptor DOR, 10 μM, mean of Inhibition 1-4)?
Answer: -14.7%

Question: What about the “Inhibition 1” value ([8]; Receptor Sigma 1, 10 μM) of the same compound?
Answer: 7.22%

Question: What about the “Inhibition 2” value ([8]; Receptor Sigma 1, 10 μM) of the same compound?
Answer: -7.42%

Question: What about the “Inhibition 3” value ([8]; Receptor Sigma 1, 10 μM) of the same compound?
Answer: 1.64%

Question: And the “Inhibition 4” value ([8]; Receptor Sigma 1, 10 μM)?
Answer: 5.36%

Question: And the Mean % ([8]; Receptor Sigma 1, 10 μM, mean of Inhibition 1-4)?
Answer: 1.7%

Question: What about the “Inhibition 1” value ([8]; Receptor Sigma 2, 10 μM) of the same compound?
Answer: 14.42%

Question: What about the “Inhibition 2” value ([8]; Receptor Sigma 2, 10 μM) of the same compound?
Answer: 15.13%

Question: What about the “Inhibition 3” value ([8]; Receptor Sigma 2, 10 μM) of the same compound?
Answer: 40.23%

Question: What about the “Inhibition 4” value ([8]; Receptor Sigma 2, 10 μM) of the same compound?
Answer: 21.82%

Question: And the Mean % ([8]; Receptor Sigma 2, 10 μM, mean of Inhibition 1-4)?
Answer: 22.9%
